Legend:
[1] = system: smooth muscle spasms induced by acetylcholine (jejunum of the rat); assay: In vitro antagonism of acetylcholine-induced smooth muscle spasm, isolated jejunum of the rat (technique of MAGNUS); settings: agonist acetylcholine, oxygen Tyrode solution, 30° C
Experimental: (§1) The pharmacological studies of the compounds according to the invention were directed essentially to the elucidation of the antispasmodic potentialities of the cations, particularly at the level of smooth muscle spasms induced by acetylcholine, histamine and Ba^++ ions. […] The isolated organs were kept alive in a thermostatic oxygen Tyrode solution at 30° C and their contractions were recorded.

[2] = target: T1, smooth muscle spasms induced by histamine (ileum of the guinea pig) (Cavia porcellus, UniProt P31389); assay: In vitro antagonism of histamine-induced smooth muscle spasm, isolated ileum of the guinea pig (technique of MAGNUS); settings: agonist histamine, oxygen Tyrode solution, 30° C; for Kb: read-out: pA2 (converted)
T1 construct: The isolated organs were kept alive in a thermostatic oxygen Tyrode solution at 30° C; from tissue; host or cells: isolated guinea pig ileum
Experimental: The pharmacological studies of the compounds according to the invention were directed essentially to the elucidation of the antispasmodic potentialities of the cations, particularly at the level of smooth muscle spasms induced by acetylcholine, histamine and Ba^++ ions. These investigations were carried out in vitro according to the technique of MAGNUS (Pflug. Arch. Ges. Physiol. 1904, 102, 349, and 1904, 103, 515 and 525) by using as biological indicators the jejunum of the rat for the first agonist and the ileum of the guinea pig for the two other agonists. The isolated organs were kept alive in a thermostatic oxygen Tyrode solution at 30° C and their contractions were recorded.
The response curve line as a function of the dose enabled the calculation of the affinity parameters (pA2 and pD'2) of the compounds according to the invention for the different types of receptor (VAN ROSSUM J.M. - Arch. Int. Pharmacodyn. 1963, 143, 299 -330).

[3] = system: smooth muscle spasms induced by Ba^++ ions (ileum of the guinea pig); assay: In vitro antagonism of Ba^++-induced smooth muscle spasm, isolated ileum of the guinea pig (technique of MAGNUS); settings: agonist Ba^++, oxygen Tyrode solution, 30° C
Experimental: as §1

[4] = target: T2, smooth muscle spasms induced by acetylcholine (jejunum of the rat) (Rattus norvegicus, UniProt P08483); assay: In vitro antagonism of acetylcholine-induced smooth muscle spasm, isolated jejunum of the rat (technique of MAGNUS); settings: agonist acetylcholine, oxygen Tyrode solution, 30° C; for Kb: read-out: pA2 (converted)
T2 construct: The isolated organs were kept alive in a thermostatic oxygen Tyrode solution at 30° C; from tissue; host or cells: isolated rat jejunum
Experimental: as §1

[5] = system: smooth muscle spasms induced by acetylcholine, histamine and Ba^++ ions; assay: Type of antagonist exerted, overall from the isolated organ tests (acetylcholine, histamine, Ba^++); set-up: species or system rat; guinea pig; settings: for TYPE OF ANTAGONIST EXERTED: Table I, over the three agonists; for mechanism and intensity of action compared with Tiemonium and papaverine: interpretation of Table I by principles of molecular pharmacology (ARIENS)
Experimental: as §1

T2 sequence (P08483 whole entry): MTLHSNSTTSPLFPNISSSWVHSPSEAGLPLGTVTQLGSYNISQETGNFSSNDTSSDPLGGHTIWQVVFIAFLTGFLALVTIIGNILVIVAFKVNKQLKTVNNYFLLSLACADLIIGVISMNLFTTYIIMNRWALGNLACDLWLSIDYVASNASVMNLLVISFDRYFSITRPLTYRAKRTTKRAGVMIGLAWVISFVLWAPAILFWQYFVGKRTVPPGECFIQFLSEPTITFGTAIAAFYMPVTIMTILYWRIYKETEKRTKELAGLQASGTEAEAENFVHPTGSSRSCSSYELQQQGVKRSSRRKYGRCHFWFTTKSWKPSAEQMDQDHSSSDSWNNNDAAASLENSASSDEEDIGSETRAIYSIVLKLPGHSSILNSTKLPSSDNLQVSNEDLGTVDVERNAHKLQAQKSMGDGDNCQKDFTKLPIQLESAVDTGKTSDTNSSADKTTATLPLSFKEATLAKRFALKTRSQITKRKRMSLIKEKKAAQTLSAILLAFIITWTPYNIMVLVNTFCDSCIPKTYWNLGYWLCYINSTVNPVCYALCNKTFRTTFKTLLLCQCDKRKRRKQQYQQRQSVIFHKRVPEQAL
T1 sequence (P31389 whole entry): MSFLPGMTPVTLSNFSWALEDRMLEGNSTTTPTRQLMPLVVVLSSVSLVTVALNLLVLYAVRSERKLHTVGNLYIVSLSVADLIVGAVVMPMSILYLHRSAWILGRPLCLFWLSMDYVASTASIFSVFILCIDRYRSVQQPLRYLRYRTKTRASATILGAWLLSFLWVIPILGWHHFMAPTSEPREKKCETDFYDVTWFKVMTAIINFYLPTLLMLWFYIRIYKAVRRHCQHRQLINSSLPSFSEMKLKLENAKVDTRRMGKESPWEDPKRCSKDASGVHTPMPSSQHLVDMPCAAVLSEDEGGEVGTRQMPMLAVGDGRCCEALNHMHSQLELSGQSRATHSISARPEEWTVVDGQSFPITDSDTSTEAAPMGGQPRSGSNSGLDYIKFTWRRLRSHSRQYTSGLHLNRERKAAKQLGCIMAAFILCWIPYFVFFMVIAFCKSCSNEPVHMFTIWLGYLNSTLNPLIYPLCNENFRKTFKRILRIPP

| Kb [4] [µM] | Kb [2] [µM] | pA2 [4] | pA2 [2] | Compound | pD'2 [1] | pD'2 [2] | pD'2 [3] | pA2 [3] | TYPE OF ANTAGONIST EXERTED [5] | mechanism and intensity of action compared with Tiemonium and papaverine [5] |
| --- | --- | --- | --- | --- | --- | --- | --- | --- | --- | --- |
| – | – | – | – | COc1ccc(Cc2nccc3cc(OC)c(OC)cc23)cc1OC [Papaverine, papaverine, reference compound] | 5.03 | 4.98 | 4.78 | – | – | – |
| 0.2 | 6.31 | – | – | C[N+]1(C)CCOC(CC(O)(c2ccccc2)c2ccccc2)C1 (centres unmarked) [Compound 2] | – | – | – | 4.90 | Competitive | great similarity of mechanism and intensity of action between compound no 2 and Tiemonium |
| 3.47 | 10 | – | – | C[N+]1(C)CCOC(CC(O)(c2ccc(F)cc2)c2ccc(F)cc2)C1 (centres unmarked) [Compound 7] | 3.21 | 3.70 | 4.04 | 5.87 | Dualist | a mechanism of action which brings into play at the same time the competitive mechanism of Tiemonium and the non-competitive mechanism of papaverine |
| – | – | 7 | 5.21 | Tiemonium [reference compound] | – | – | – | 4.95 | Competitive | – |

— US4062956A, “Substituted 2-(2-hydroxyethyl)tetrahydro-1,4 oxazines and quaternary salts thereof useful for treating spasmodic syndromes” (Centre Europeen de Recherches Mauvernay, priority 1975, dated 1977)
